Test results from ChEMBL document CHEMBL1154835, “Antimicrobial study of newly synthesized 6-substituted indolo[1,2-c]quinazolines” (2010).
Values after ≈ are worked out from the molar mass of the structure shown.

Key:
Bacillus subtilis [1] = test: Antimicrobial activity against Bacillus subtilis after 24 hrs by liquid dilution method; assay type: functional
Trichoderma viride [2] = test: Antimicrobial activity against Trichoderma viride at 1000 ug after 72 hrs by cup plate method; assay type: functional; conditions: read-out: DIZ
Klebsiella pneumoniae [3] = test: Antimicrobial activity against Klebsiella pneumoniae at 1000 ug after 24 hrs by cup plate method; assay type: functional; conditions: read-out: DIZ
Staphylococcus aureus [4] = test: Antimicrobial activity against Staphylococcus aureus after 24 hrs by liquid dilution method; assay type: functional
Trichoderma viride [5] = test: Antimicrobial activity against Trichoderma viride after 24 hrs by liquid dilution method; assay type: functional
Candida albicans [6] = test: Antimicrobial activity against Candida albicans after 24 hrs by liquid dilution method; assay type: functional
Candida albicans [7] = test: Antimicrobial activity against Candida albicans at 1000 ug after 72 hrs by cup plate method; assay type: functional; conditions: read-out: DIZ
Streptococcus pyogenes [8] = test: Antimicrobial activity against Streptococcus pyogenes at 1000 ug after 24 hrs by cup plate method; assay type: functional; conditions: read-out: DIZ
Aspergillus niger [9] = test: Antimicrobial activity against Aspergillus niger at 1000 ug after 72 hrs by cup plate method; assay type: functional; conditions: read-out: DIZ
Streptococcus pyogenes [10] = test: Antimicrobial activity against Streptococcus pyogenes after 24 hrs by liquid dilution method; assay type: functional
Bacillus subtilis [11] = test: Antimicrobial activity against Bacillus subtilis at 1000 ug after 24 hrs by cup plate method; assay type: functional; conditions: read-out: DIZ
Salmonella enterica [12] = test: Antimicrobial activity against Salmonella Typhimurium at 1000 ug after 24 hrs by cup plate method; assay type: functional, Salmonella enterica subsp. enterica serovar Typhimurium; conditions: read-out: DIZ
Staphylococcus aureus [13] = test: Antimicrobial activity against Staphylococcus aureus at 1000 ug after 24 hrs by cup plate method; assay type: functional; conditions: read-out: DIZ
Klebsiella pneumoniae [14] = test: Antimicrobial activity against Klebsiella pneumoniae after 24 hrs by liquid dilution method; assay type: functional
Salmonella enterica [15] = test: Antimicrobial activity against Salmonella Typhimurium after 24 hrs by liquid dilution method; assay type: functional, Salmonella enterica subsp. enterica serovar Typhimurium
Escherichia coli [16] = test: Antimicrobial activity against Escherichia coli at 1000 ug after 24 hrs by cup plate method; assay type: functional; conditions: read-out: DIZ
Aspergillus niger [17] = test: Antimicrobial activity against Aspergillus niger after 24 hrs by liquid dilution method; assay type: functional
Escherichia coli [18] = test: Antimicrobial activity against Escherichia coli after 24 hrs by liquid dilution method; assay type: functional

Structure (SMILES)	MIC (Bacillus subtilis [1])	zone of inhibition at 1000 µg/disc (Trichoderma viride [2])	zone of inhibition at 1000 µg/disc (Klebsiella pneumoniae [3])	MIC (Staphylococcus aureus [4])	MIC (Trichoderma viride [5])	MIC (Candida albicans [6])	zone of inhibition at 1000 µg/disc (Candida albicans [7])	zone of inhibition at 1000 µg/disc (Streptococcus pyogenes [8])	zone of inhibition at 1000 µg/disc (Aspergillus niger [9])	MIC (Streptococcus pyogenes [10])	zone of inhibition at 1000 µg/disc (Bacillus subtilis [11])	zone of inhibition at 1000 µg/disc (Salmonella enterica [12])	zone of inhibition at 1000 µg/disc (Staphylococcus aureus [13])	MIC (Klebsiella pneumoniae [14])	MIC (Salmonella enterica [15])	zone of inhibition at 1000 µg/disc (Escherichia coli [16])	MIC (Aspergillus niger [17])	MIC (Escherichia coli [18])
c1cc(-c2nc3ccccc3c3cc4ccccc4n23)cc(-c2nc3ccccc3c3cc4ccccc4n23)c1	15 µg/mL (≈ 29.4 µM)	21 mm	18 mm	5 µg/mL (≈ 9.79 µM)	25 µg/mL (≈ 49 µM)	30 µg/mL (≈ 58.8 µM)	15 mm	48 mm	12 mm	15 µg/mL (≈ 29.4 µM)	46 mm	35 mm	51 mm	35 µg/mL (≈ 68.5 µM)	20 µg/mL (≈ 39.2 µM)	20 mm	30 µg/mL (≈ 58.8 µM)	10 µg/mL (≈ 19.6 µM)
c1ccc2c(c1)cc1c3ccccc3nc(-c3ccc(Oc4ccc(-c5nc6ccccc6c6cc7ccccc7n56)cc4)cc3)n21	–	18 mm	21 mm	–	–	–	9 mm	13 mm	10 mm	–	14 mm	11 mm	18 mm	–	–	14 mm	–	–
c1ccc2c(c1)cc1c3ccccc3nc(-c3csc4ccccc34)n21	2.5 µg/mL (≈ 7.13 µM)	49 mm	50 mm	2.5 µg/mL (≈ 7.13 µM)	2.5 µg/mL (≈ 7.13 µM)	10 µg/mL (≈ 28.5 µM)	45 mm	48 mm	52 mm	5 µg/mL (≈ 14.3 µM)	51 mm	50 mm	55 mm	5 µg/mL (≈ 14.3 µM)	2.5 µg/mL (≈ 7.13 µM)	48 mm	2.5 µg/mL (≈ 7.13 µM)	2.5 µg/mL (≈ 7.13 µM)
COc1ccc2[nH]cc(-c3nc4ccccc4c4cc5ccccc5n34)c2c1	5 µg/mL (≈ 13.8 µM)	49 mm	46 mm	5 µg/mL (≈ 13.8 µM)	10 µg/mL (≈ 27.5 µM)	15 µg/mL (≈ 41.3 µM)	48 mm	39 mm	49 mm	10 µg/mL (≈ 27.5 µM)	49 mm	42 mm	50 mm	5 µg/mL (≈ 13.8 µM)	5 µg/mL (≈ 13.8 µM)	50 mm	10 µg/mL (≈ 27.5 µM)	5 µg/mL (≈ 13.8 µM)
c1ccc(-c2nc3ccccc3c3cc4ccccc4n23)c(-c2nc3ccccc3c3cc4ccccc4n23)c1	20 µg/mL (≈ 39.2 µM)	18 mm	14 mm	5 µg/mL (≈ 9.79 µM)	35 µg/mL (≈ 68.5 µM)	35 µg/mL (≈ 68.5 µM)	13 mm	46 mm	20 mm	20 µg/mL (≈ 39.2 µM)	40 mm	18 mm	52 mm	30 µg/mL (≈ 58.8 µM)	25 µg/mL (≈ 49 µM)	16 mm	20 µg/mL (≈ 39.2 µM)	20 µg/mL (≈ 39.2 µM)
c1ccc2c(c1)cc1c3ccccc3nc(-c3ccc(-c4nc5ccccc5c5cc6ccccc6n45)cc3)n21	–	9 mm	13 mm	–	–	–	21 mm	18 mm	12 mm	–	14 mm	11 mm	25 mm	–	–	16 mm	–	–
CC(=O)N1CCN(c2ccc(OCC3COC(Cn4ccnc4)(c4ccc(Cl)cc4Cl)O3)cc2)CC1 (stereo not given) [KETOCONAZOLE]	–	41 mm	–	–	20 µg/mL (≈ 37.6 µM)	25 µg/mL (≈ 47 µM)	40 mm	–	45 mm	–	–	–	–	–	–	–	15 µg/mL (≈ 28.2 µM)	–
c1ccc2cc(-c3nc4ccccc4c4cc5ccccc5n34)c(-c3nc4ccccc4c4cc5ccccc5n34)cc2c1	15 µg/mL (≈ 26.8 µM)	12 mm	35 mm	5 µg/mL (≈ 8.92 µM)	30 µg/mL (≈ 53.5 µM)	25 µg/mL (≈ 44.6 µM)	16 mm	39 mm	17 mm	15 µg/mL (≈ 26.8 µM)	45 mm	14 mm	50 mm	20 µg/mL (≈ 35.7 µM)	35 µg/mL (≈ 62.4 µM)	12 mm	35 µg/mL (≈ 62.4 µM)	35 µg/mL (≈ 62.4 µM)
c1ccc2c(c1)cc1c3ccccc3nc(-c3ccc(-c4ccncc4)cc3)n21	10 µg/mL (≈ 26.9 µM)	21 mm	42 mm	5 µg/mL (≈ 13.5 µM)	25 µg/mL (≈ 67.3 µM)	30 µg/mL (≈ 80.8 µM)	18 mm	42 mm	22 mm	15 µg/mL (≈ 40.4 µM)	48 mm	25 mm	50 mm	30 µg/mL (≈ 80.8 µM)	20 µg/mL (≈ 53.8 µM)	35 mm	25 µg/mL (≈ 67.3 µM)	25 µg/mL (≈ 67.3 µM)
Cc1ccc2[nH]cc(-c3nc4ccccc4c4cc5ccccc5n34)c2c1	10 µg/mL (≈ 28.8 µM)	46 mm	48 mm	5 µg/mL (≈ 14.4 µM)	5 µg/mL (≈ 14.4 µM)	20 µg/mL (≈ 57.6 µM)	51 mm	45 mm	50 mm	5 µg/mL (≈ 14.4 µM)	42 mm	46 mm	52 mm	2.5 µg/mL (≈ 7.2 µM)	5 µg/mL (≈ 14.4 µM)	42 mm	2.5 µg/mL (≈ 7.2 µM)	2.5 µg/mL (≈ 7.2 µM)
CC1(C)S[C@@H]2[C@H](NC(=O)[C@H](N)c3ccccc3)C(=O)N2[C@H]1C(=O)O [AMPICILLIN]	20 µg/mL (≈ 57.2 µM)	–	45 mm	10 µg/mL (≈ 28.6 µM)	–	–	–	35 mm	–	25 µg/mL (≈ 71.5 µM)	39 mm	45 mm	48 mm	10 µg/mL (≈ 28.6 µM)	10 µg/mL (≈ 28.6 µM)	40 mm	–	5 µg/mL (≈ 14.3 µM)
c1ccc2c(c1)cc1c3ccccc3nc(-c3c[nH]c4ccccc34)n21	15 µg/mL (≈ 45 µM)	50 mm	49 mm	2.5 µg/mL (≈ 7.5 µM)	2.5 µg/mL (≈ 7.5 µM)	5 µg/mL (≈ 15 µM)	49 mm	49 mm	46 mm	2.5 µg/mL (≈ 7.5 µM)	46 mm	48 mm	51 mm	5 µg/mL (≈ 15 µM)	2.5 µg/mL (≈ 7.5 µM)	52 mm	10 µg/mL (≈ 30 µM)	2.5 µg/mL (≈ 7.5 µM)
